Measurements taken from patent US12433876B2, “Septin inhibitors for treatment of cancers” (UNIVERSITY OF ROCHESTER, priority 2019, dated 2025).

Experiments:
Format in all cases: cell-based
septin-7 [1] = assay: Immunoblot of septin-7 expression; details: PANC-1, 1.0 and 10.0 μM, 48 hours
septin-7 [2] = molecular target: T1, septin-7 (Homo sapiens, UniProt Q16181); assay: Confocal analysis of septin-7; details: PANC-1 cells
T1 construct: investigate the response of other septin family members in PANC-1 cells upon treatment with UR214-9; endogenous in cells; host or cells: PANC-1, JIMT-1, SKOV-3 (confocal); PANC-1 (immunoblot)
T1 sequence (Q16181 whole entry): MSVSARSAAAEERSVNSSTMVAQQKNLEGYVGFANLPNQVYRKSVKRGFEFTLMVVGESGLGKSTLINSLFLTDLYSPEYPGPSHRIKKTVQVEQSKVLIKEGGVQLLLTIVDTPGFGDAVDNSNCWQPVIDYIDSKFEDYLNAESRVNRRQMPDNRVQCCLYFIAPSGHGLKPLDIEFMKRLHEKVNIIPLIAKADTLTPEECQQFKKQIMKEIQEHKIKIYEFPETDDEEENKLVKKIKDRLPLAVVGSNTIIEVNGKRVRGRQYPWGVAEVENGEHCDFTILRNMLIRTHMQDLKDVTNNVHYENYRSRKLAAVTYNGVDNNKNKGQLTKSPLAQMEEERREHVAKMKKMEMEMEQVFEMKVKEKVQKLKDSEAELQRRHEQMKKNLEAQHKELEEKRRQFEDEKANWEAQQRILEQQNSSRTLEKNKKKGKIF

Cullin-3 = assay: Cell Cycle Antibody Array, PANC-1 cells; details: normalized to GAPDH
From the text: Cell Cycle Protein Expression. Cell Cycle Antibody Array (FullMoon BioSystems Inc, catalogue number: ACC:058), a high throughput ELISA based antibody array, designed for qualitative/semi-quantitative protein expression profiling was employed to investigate the protein changes after drug treatment. PANC-1 cells were lysed in buffer containing protease and phosphatase inhibitors (Cell Signaling, catalog number: 9803S). Total protein content was quantified by Bradford assay and equal amounts of proteins were analyzed in duplicate with arrays containing 4 to 6 spots for each of 60 probes (ACC058, Cell Cycle Antibody Array; Full Moon Biosystems, Sunnyvale, Calif.), according to manufacturer's instructions. After background correction, mean signal intensities were measured using FullMoon Inc's imaging services. Protein expressions in both the naïve and 328 treatment group was normalized to GAPDH signals. Confocal Analysis of Septin Disarrangement. To determine the impact of UR214-9 treatment on Septin-2 structure in cells, PANC-1 or JIMT-1 cells were seeded on glass slides and allowed to adhere overnight. The media was replaced with complete DMEM media supplemented with DMSO or UR214-9 (1 μM and 70 nM) and cells were incubated for 48 hours. […] The cells were stained with fluorescence linked secondary antibody for 1 hr under dark. […] Five cells were outlined and analyzed per field. […]

septin-7 (confocal) (septin-7 [2]): reduced expression
SMILES: O=C(Nc1cc(Cl)nc(Cl)c1)Nc1cccc(SC(F)(F)F)c1F [UR214-9]
septin-7 expression (immunoblot) (septin-7 [1]): unaffected
Cullin-3 expression, treated versus naïve (Cullin-3): most pronounced upregulation
